In the NIST ThermoML archive (doi:10.1021/je049626l):
“And” between values parts separate entries of the source, which are not always exact repeats. Equal values may be shown once. ± gives the expanded uncertainty stated by the source.

How the values were obtained:
[1] = Crystal; for Normal melting temperature: DTA
[2] = molar enthalpy of vaporization or sublimation; settings: Liquid, DSC

CC(Oc1ccc(Cl)cc1Cl)C(=O)O (configuration not stated) [2-(2,4-dichlorophenoxy)propanoic acid]
vapor or sublimation pressure ([1]; 343 K): 0.000157 ± 2.1e-05 kPa
vapor or sublimation pressure ([1]; 347 K): 0.000267 ± 3.5e-05 kPa and 0.000297 ± 3.7e-05 kPa
vapor or sublimation pressure ([1]; 352 K): 0.000551 ± 6e-05 kPa
vapor or sublimation pressure ([1]; 353 K): 0.000503 ± 5.9e-05 kPa
vapor or sublimation pressure ([1]; 356 K): 0.000764 ± 8.4e-05 kPa and 0.000708 ± 7.9e-05 kPa
vapor or sublimation pressure ([1]; 358 K): 0.000849 ± 8.8e-05 kPa
vapor or sublimation pressure ([1]; 359 K): 0.000912 ± 0.00014 kPa
vapor or sublimation pressure ([1]; 360 K): 0.00126 ± 0.00028 kPa
vapor or sublimation pressure ([1]; 361 K): 0.00126 ± 0.0003 kPa and 0.00153 ± 0.00036 kPa
vapor or sublimation pressure ([1]; 364 K): 0.00223 ± 0.00054 kPa
vapor or sublimation pressure ([1]; 365 K): 0.00208 ± 0.00049 kPa
vapor or sublimation pressure ([1]; 366 K): 0.00252 ± 0.00066 kPa and 0.00339 ± 0.00089 kPa
vapor or sublimation pressure ([1]; 368 K): 0.00361 ± 0.00095 kPa
vapor or sublimation pressure ([1]; 370 K): 0.00445 ± 0.0012 kPa
vapor or sublimation pressure ([1]; 371 K): 0.00481 ± 0.0013 kPa
vapor or sublimation pressure ([1]; 372 K): 0.00472 ± 0.0013 kPa
vapor or sublimation pressure ([1]; 374 K): 0.00721 ± 0.0021 kPa
vapor or sublimation pressure ([1]; 375 K): 0.00692 ± 0.002 kPa
Normal melting temperature [1]: 116.6 ± 0.5 °C
molar enthalpy ([2]; 466.7 K): 18.2 ± 1.43 kcal/mol
molar enthalpy ([2]; 474 K): 18.2 ± 1.43 kcal/mol
molar enthalpy ([2]; 477.9 K): 18.2 ± 1.2 kcal/mol

COC(=O)CCCOc1ccc(Cl)cc1Cl [butanoic acid, 4-(2,4-dichlorophenoxy)-, methyl ester]
Normal melting temperature [1]: 35.0 ± 0.5 °C
molar enthalpy ([2]; 456 K): 15.8 ± 1.43 kcal/mol
molar enthalpy ([2]; 463.4 K): 16.3 ± 1.67 kcal/mol
molar enthalpy ([2]; 469.8 K): 16.3 ± 1.43 kcal/mol

COC(=O)COc1ccc(Cl)cc1Cl [methyl 2,4-dichlorophenoxyethanoate]
Normal melting temperature [1]: 37.6 ± 0.5 °C
molar enthalpy ([2]; 415.2 K): 14.1 ± 0.717 kcal/mol
molar enthalpy ([2]; 424.4 K): 14.3 ± 0.717 kcal/mol
molar enthalpy ([2]; 430.4 K): 14.3 ± 0.717 kcal/mol

O=C(O)CCCOc1ccc(Cl)cc1Cl [4-(2,4-dichlorophenoxy)butanoic acid]
vapor or sublimation pressure ([1]; 356.5 K): 8.48e-05 ± 1.1e-05 kPa
vapor or sublimation pressure ([1]; 358 K): 0.000106 ± 1.3e-05 kPa
vapor or sublimation pressure ([1]; 359.5 K): 0.000127 ± 1.6e-05 kPa
vapor or sublimation pressure ([1]; 360 K): 0.000148 ± 1.6e-05 kPa and 0.000157 ± 1.7e-05 kPa
vapor or sublimation pressure ([1]; 361 K): 0.000148 ± 1.6e-05 kPa
vapor or sublimation pressure ([1]; 361.5 K): 0.00017 ± 2.2e-05 kPa
vapor or sublimation pressure ([1]; 362.5 K): 0.000191 ± 2.3e-05 kPa
vapor or sublimation pressure ([1]; 363 K): 0.000212 ± 2.4e-05 kPa and 0.000252 ± 2.7e-05 kPa
vapor or sublimation pressure ([1]; 363.5 K): 0.000212 ± 2.3e-05 kPa and 0.000233 ± 2.5e-05 kPa
vapor or sublimation pressure ([1]; 365.5 K): 0.000255 ± 2.9e-05 kPa
vapor or sublimation pressure ([1]; 366.5 K): 0.000297 ± 4e-05 kPa
vapor or sublimation pressure ([1]; 367 K): 0.000339 ± 5.2e-05 kPa
vapor or sublimation pressure ([1]; 367.5 K): 0.000377 ± 4.3e-05 kPa
vapor or sublimation pressure ([1]; 368 K): 0.000382 ± 5e-05 kPa
vapor or sublimation pressure ([1]; 369 K): 0.000467 ± 5.3e-05 kPa
vapor or sublimation pressure ([1]; 369.5 K): 0.000445 ± 4.6e-05 kPa
vapor or sublimation pressure ([1]; 370 K): 0.000488 ± 7.4e-05 kPa and 0.000467 ± 7.4e-05 kPa
vapor or sublimation pressure ([1]; 372 K): 0.000721 ± 8.4e-05 kPa
vapor or sublimation pressure ([1]; 372.5 K): 0.000679 ± 7.1e-05 kPa and 0.000636 ± 6.7e-05 kPa
vapor or sublimation pressure ([1]; 373 K): 0.000764 ± 8.6e-05 kPa and 0.000786 ± 8.7e-05 kPa
vapor or sublimation pressure ([1]; 374 K): 0.000806 ± 9.1e-05 kPa
vapor or sublimation pressure ([1]; 375 K): 0.000933 ± 0.0001 kPa and 0.00106 ± 0.00022 kPa
vapor or sublimation pressure ([1]; 377 K): 0.00106 ± 0.00022 kPa and 0.00123 ± 0.00026 kPa
vapor or sublimation pressure ([1]; 377.5 K): 0.00123 ± 0.0003 kPa
vapor or sublimation pressure ([1]; 378 K): 0.00138 ± 0.0003 kPa and 0.0017 ± 0.00038 kPa
vapor or sublimation pressure ([1]; 380 K): 0.00161 ± 0.00038 kPa
vapor or sublimation pressure ([1]; 381 K): 0.00229 ± 0.00056 kPa
vapor or sublimation pressure ([1]; 382 K): 0.00221 ± 0.00055 kPa
vapor or sublimation pressure ([1]; 383 K): 0.00297 ± 0.00076 kPa and 0.00283 ± 0.00072 kPa
vapor or sublimation pressure ([1]; 384 K): 0.00297 ± 0.00075 kPa
vapor or sublimation pressure ([1]; 386 K): 0.00369 ± 0.00096 kPa and 0.0044 ± 0.0012 kPa
vapor or sublimation pressure ([1]; 386.5 K): 0.00365 ± 0.001 kPa
vapor or sublimation pressure ([1]; 387 K): 0.00458 ± 0.0013 kPa
vapor or sublimation pressure ([1]; 389 K): 0.00539 ± 0.0015 kPa
vapor or sublimation pressure ([1]; 389.5 K): 0.00526 ± 0.0015 kPa
vapor or sublimation pressure ([1]; 391 K): 0.0067 ± 0.0019 kPa and 0.00666 ± 0.0019 kPa
Normal melting temperature [1]: 120.1 ± 0.5 °C
molar enthalpy ([2]; 485.7 K): 19.4 ± 2.15 kcal/mol
molar enthalpy ([2]; 495 K): 19.4 ± 2.39 kcal/mol
molar enthalpy ([2]; 501.1 K): 19.4 ± 2.15 kcal/mol

O=C(O)COc1ccc(Cl)cc1Cl [2,4-dichlorophenoxyethanoic acid]
vapor or sublimation pressure ([1]; 346 K): 8.48e-05 ± 2e-05 kPa
vapor or sublimation pressure ([1]; 348 K): 0.000157 ± 1.9e-05 kPa
vapor or sublimation pressure ([1]; 348.5 K): 0.000127 ± 3.3e-05 kPa
vapor or sublimation pressure ([1]; 351 K): 0.00017 ± 4.6e-05 kPa
vapor or sublimation pressure ([1]; 351.5 K): 0.000127 ± 2.5e-05 kPa
vapor or sublimation pressure ([1]; 352 K): 0.000212 ± 4.5e-05 kPa
vapor or sublimation pressure ([1]; 353 K): 0.000255 ± 2.8e-05 kPa and 0.000314 ± 3.3e-05 kPa
vapor or sublimation pressure ([1]; 354.5 K): 0.000276 ± 4e-05 kPa and 0.000212 ± 3.6e-05 kPa
vapor or sublimation pressure ([1]; 357 K): 0.000472 ± 0.0001 kPa
vapor or sublimation pressure ([1]; 357.5 K): 0.000382 ± 8.6e-05 kPa
vapor or sublimation pressure ([1]; 358 K): 0.000318 ± 3.3e-05 kPa
vapor or sublimation pressure ([1]; 358.5 K): 0.000382 ± 4.8e-05 kPa
vapor or sublimation pressure ([1]; 360 K): 0.000445 ± 5.1e-05 kPa and 0.000629 ± 7.4e-05 kPa
vapor or sublimation pressure ([1]; 360.5 K): 0.000488 ± 7.2e-05 kPa
vapor or sublimation pressure ([1]; 361 K): 0.000551 ± 7e-05 kPa
vapor or sublimation pressure ([1]; 361.5 K): 0.000573 ± 5.8e-05 kPa
vapor or sublimation pressure ([1]; 362.5 K): 0.000573 ± 7.1e-05 kPa
vapor or sublimation pressure ([1]; 363 K): 0.000721 ± 8.9e-05 kPa and 0.000679 ± 8.7e-05 kPa
vapor or sublimation pressure ([1]; 364.5 K): 0.000806 ± 9.1e-05 kPa
vapor or sublimation pressure ([1]; 365.5 K): 0.000933 ± 0.00011 kPa and 0.00126 ± 0.00028 kPa
vapor or sublimation pressure ([1]; 366 K): 0.000976 ± 0.00011 kPa and 0.000848 ± 0.00012 kPa
vapor or sublimation pressure ([1]; 369 K): 0.00132 ± 0.00028 kPa and 0.0014 ± 0.00031 kPa and 0.0011 ± 0.00023 kPa
vapor or sublimation pressure ([1]; 370 K): 0.00136 ± 0.0003 kPa and 0.00204 ± 0.00048 kPa
vapor or sublimation pressure ([1]; 370.5 K): 0.00153 ± 0.00038 kPa
vapor or sublimation pressure ([1]; 371 K): 0.0017 ± 0.00038 kPa
vapor or sublimation pressure ([1]; 373 K): 0.00174 ± 0.00041 kPa
vapor or sublimation pressure ([1]; 374 K): 0.00255 ± 0.00065 kPa
vapor or sublimation pressure ([1]; 375 K): 0.00255 ± 0.00062 kPa and 0.00212 ± 0.0005 kPa
vapor or sublimation pressure ([1]; 375.5 K): 0.00229 ± 0.00056 kPa
vapor or sublimation pressure ([1]; 377 K): 0.00297 ± 0.00075 kPa
vapor or sublimation pressure ([1]; 378 K): 0.00293 ± 0.00074 kPa and 0.00481 ± 0.0013 kPa
vapor or sublimation pressure ([1]; 379 K): 0.00361 ± 0.00094 kPa
vapor or sublimation pressure ([1]; 379.5 K): 0.00344 ± 0.00088 kPa
vapor or sublimation pressure ([1]; 380.5 K): 0.00386 ± 0.001 kPa
vapor or sublimation pressure ([1]; 383.5 K): 0.00509 ± 0.0015 kPa
vapor or sublimation pressure ([1]; 385 K): 0.00594 ± 0.0018 kPa
vapor or sublimation pressure ([1]; 386 K): 0.00628 ± 0.0018 kPa
vapor or sublimation pressure ([1]; 387 K): 0.0067 ± 0.0019 kPa
Normal melting temperature [1]: 141.4 ± 0.5 °C
molar enthalpy ([2]; 479.1 K): 18.2 ± 0.956 kcal/mol
molar enthalpy ([2]; 489.5 K): 18.2 ± 1.43 kcal/mol
molar enthalpy ([2]; 503.3 K): 18.4 ± 1.2 kcal/mol
